Results on seven compounds are retold here after patent US7339061B2, “3-(4-oxo-4H-chromen-2-yl)-(1H)-quinolin-4-one derivatives, method for preparing same and pharmaceutical compositions containing same” (Les Laboratoires Servier, priority 2002, dated 2008).

The subject of one series is lung cancer cells. Briefly: In vitro synergistic effect with anti-cancer agent (MTT test, Chou and Talabay analysis), lung cancer cells. Type of series: cell-based. To be noted: 96 hours, five concentrations of compound and of cisplatin (CDDP). On the procedure:
(§1) Three cell lines which are sensitive to three anti-cancer agents are used: breast cancer cells in association with treatment with tamoxifen (TXL), lung cancer cells in association with treatment with cisplatin (CDDP), and colon cancer cells in association with treatment with SN38, a metabolite of CPT-11 (irinotecan).
(§2) The tumour cells are incubated for 96 hours together with five different concentrations of each of the compounds of the invention and five concentrations of each of the anti-cancer agents in association.
(§3) The in vitro cytotoxic activity is determined by the MTT test described in Example 24. Analysis of the data is carried out according to the method of Chou and Talabay, published in Trends Pharmaceutical Sci.—1983; 4:450.

The test system of a further series is breast cancer cells. Briefly: In vitro synergistic effect with anti-cancer agent (MTT test, Chou and Talabay analysis), breast cancer cells. Type of series: cell-based. To be noted: 96 hours, five concentrations of compound and of anti-cancer agent; method names tamoxifen (TXL) on breast cancer cells. On the procedure: as §1, §2, §3
For orientation: Tetrazolium assays rely on reduction of a dye to a coloured formazan, in cell work by metabolically active cells.

In series [1] the test system is Eleven cell lines from cancers of different origins and sites (lung, breast, prostate, colon, blood, bladder, skin, ovary, brain). Briefly: In vitro cytotoxicity, MTT test, 96 hours incubation. Type of series: cell-based. To be noted: lines to which the stated IC50 range applies. The method, then:
Eleven cell lines from cancers of different origins and sites (lung, breast, prostate, colon, blood, bladder, skin, ovary, brain) are cultured in order to study the various compounds in comparison to the reference substance.
The cells are incubated for 96 hours with various concentrations of compounds of the invention.
The in vitro cytotoxic activity is determined by the MTT [3-(4,5-dimethylthiazol-2-yl)-2,5-diphenyltetrazolium bromide] test as described by Carmichael in Cancer Res.—1987; 47 (4): 936-942.
The activity is expressed in terms of the IC50, that is to say the concentration which inhibits proliferation of the tumour cells by 50%.

Series [2] deals with prostate cancer line (LN CaP). Description: Apoptotic effect, TUNEL test. The format is cell-based. To be noted: LN CaP cells incubated at the IC50 concentration, 8 to 96 hours; early = 8 hours. The method, then: Study of the pro-apoptotic effects of compounds of the invention is carried out on a prostate cancer line (LN CaP). The cells were incubated for periods ranging from 8 to 96 hours at the IC50 concentration.
The TUNEL test was then carried out according to the method described by Sgonc in Trends Genetics—1994; 10:41.

Consider `CN1CC=C(c2c(O)cc(O)c3c(=O)cc(-c4cn(-c5ccccc5)c5ccccc5c4=O)oc23)CC1` [Example 14, 3-[5,7-Dihydroxy-8-(1-methyl-1,2,5,6-tetrahydropyridin-4-yl)4-oxo-4H-1-benzopyran-2-yl]-1-phenyl-1H-1,4-dihydroquinolin-4-one], for which the “synergistic effect with cisplatin” value with lung cancer cells is recorded as “synergistic effect”. Also, in the series with breast cancer cells, the “synergistic effect with paclitaxel” value is given as “synergistic effect”. Further, in series [1], the “number of the 11 lines tested with respect to which the compound has cytotoxic activity” value is listed as 5 of the 11. Consider `O=c1c(-c2cc(=O)c3c(O)cc(O)c(C4=CCN(Cc5ccccc5)CC4)c3o2)cn(-c2ccccc2)c2ccccc12` [Example 16, 3-[5,7-Dihydroxy-8-(1-benzyl-1,2,5,6-tetrahydropyridin-4-yl)-4-oxo-4H-1-benzopyran-2-yl]-1-phenyl-1H-1,4-dihydroquinolin-4-one], for which the “synergistic effect with cisplatin” value with lung cancer cells is “synergistic effect”. For the same compound, the “synergistic effect with paclitaxel” value in the series with breast cancer cells is “synergistic effect”. For `O=c1cc(-c2cn(-c3ccccc3)c3ccccc3c2=O)oc2ccccc12` [Example 8, 3-(4-Oxo-4H-1-benzopyran-2-yl)-1-phenyl-1H-quinolin-4-one], the melting point (as a rule, the temperature of the solid-liquid transition) was 327 to 328 °C. `COc1cc(O)c2c(=O)cc(-c3cn(-c4ccccc4)c4ccccc4c3=O)oc2c1` [Example 7, 3-(5-Hydroxy-7-methoxy-4-oxo-4H-1-benzopyran-2-yl)-1-phenyl-1H-quinolin-4-one] registered a melting point of 295 to 296 °C. `O=c1c(-c2cc(=O)c3c(O)cccc3o2)cn(-c2ccccc2)c2ccccc12` [Example 6, 3-(5-Hydroxy-4-oxo-4H-1-benzopyran-2-yl)-1-phenyl-1H-quinolin-4-one] had a melting point greater than 300 °C. The “apoptosis (TUNEL test)” value in series [2] is on record as “very high apoptosis”.

Take `COc1cc(OC)c2c(=O)cc(-c3cn(-c4ccccc4)c4ccccc4c3=O)oc2c1C1=CCN(C)CC1` [Example 9, 3-[5,7-Dimethoxy-8-(1-methyl-1,2,5,6-tetrahydropyridin-4-yl)-4-oxo-4H-1-benzopyran-2-yl]-1-phenyl-1H-1,4-dihydroquinolin-4-one]: the “number of the 11 lines tested with respect to which the compound has cytotoxic activity” value in series [1] is 8 of the 11. The compound `O=c1cc(-c2cn(-c3ccccc3)c3ccccc3c2=O)oc2cc(O)ccc12` [Example 2, 3-(7-Hydroxy-4-oxo-4H-1-benzopyran-2-yl)-1-phenyl-1H-quinolin-4-one] came in with a melting point of 295 to 300 °C.
